Each structure is given as a SMILES string. Values after ≈ are worked out from the molar mass of the structure shown.

The series can be described thus: Solubility in silicone oil at 25° C. The note with it: oil or lipid.
By solubility is commonly meant the dissolved amount per volume that the medium holds. Lower therefore signals a poorly soluble substance. In turn, `Nc1nc2c(ncn2COCCO)c(=O)[nH]1` [acyclovir] came in with a solubility of under 80 µg/mL.

`Cc1ncc([N+](=O)[O-])n1CCO` [metronidazole] came in with a solubility of 6 µg/mL (≈ 35.1 µM).

With `CC(C)N1CCN(c2ccc(OCC3COC(Cn4cncn4)(c4ccc(Cl)cc4Cl)O3)cc2)CC1` (stereo not shown) [terconazole], the solubility was 200 µg/mL (≈ 376 µM).

`C[C@]12CC[C@H]3[C@@H](CCC4=CC(=O)CC[C@@]43C)[C@@H]1CC[C@@H]2O` [testosterone] returned a solubility of 140 µg/mL (≈ 485 µM).

The values are drawn from patent publication US9993424B2, “Intravaginal matrix drug delivery devices” (Allergan Pharmaceuticals International Limited, priority 2002, dated 2018).
